Experimental data taken from paper PMC6935173, “Characterization of a vacuolar sucrose transporter, HbSUT5, from Hevea brasiliensis: involvement in latex production through regulation of intracellular sucrose transport in the bark and laticifers” (BMC Plant Biology, 2019).
One block for each molecule: values may come before it.

Assays:
HbSUT5 = target: T1, HbSUT5 (Hevea brasiliensis, UniProt A0T058); assay: competition with […]-sucrose uptake in yeast SEY6210; assay type: cell-based
T1 construct: gene SUT5; ORF primers give start MAIPQ
T1 sequence (A0T058 1-498): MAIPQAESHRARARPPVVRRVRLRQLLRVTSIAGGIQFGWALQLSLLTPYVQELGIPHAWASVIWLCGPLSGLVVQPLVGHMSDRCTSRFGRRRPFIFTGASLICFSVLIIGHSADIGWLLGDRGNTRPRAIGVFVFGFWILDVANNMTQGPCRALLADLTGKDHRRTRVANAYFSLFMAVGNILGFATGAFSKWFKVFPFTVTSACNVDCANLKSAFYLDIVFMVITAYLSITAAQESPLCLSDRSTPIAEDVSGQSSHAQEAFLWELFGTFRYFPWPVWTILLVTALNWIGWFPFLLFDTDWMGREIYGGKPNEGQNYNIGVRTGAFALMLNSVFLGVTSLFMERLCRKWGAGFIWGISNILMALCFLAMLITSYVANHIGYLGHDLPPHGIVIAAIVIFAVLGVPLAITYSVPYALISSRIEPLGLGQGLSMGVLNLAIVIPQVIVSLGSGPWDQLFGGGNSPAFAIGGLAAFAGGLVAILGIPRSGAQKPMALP

[1] = substrate: OC[C@H]1O[C@@](CO)(O[C@H]2O[C@H](CO)[C@@H](O)[C@H](O)[C@H]2O)[C@@H](O)[C@@H]1O; assay: cells, lysate or membranes; assay type: cell-based, Hevea brasiliensis; conditions: pH 5.5, 0.5-8 mM sucrose, labelled compound, H+ symport, whole yeast cells

activity at 10000 µM (HbSUT5): 44 ± 3.4%
Molecule: OC[C@H]1O[C@H](O[C@H]2[C@H](O)[C@@H](O)C(O)O[C@@H]2CO)[C@H](O)[C@@H](O)[C@@H]1O (some centres unmarked) [Maltose]

B1: HbSUT5 (Hevea brasiliensis) (protein)
chain: T1 sequence (A0T058 1-498)
notes: ORF primers give start MAIPQ
Km [1]: 2030 µM
